Values of other authors, collected in article PMC7744997 (Clinical Infectious Diseases: An Official Publication of …, 2020).

Tested on: RSV
Settings: cited from earlier work

SMILES | Outcome on viral load endpoints in clinical studies
Cc1ccc([C@]23Cn4cccc4C(=O)N2CCN3C(=O)c2conc2C)cn1 [BTA-C585] | failure to meet viral load endpoints
Cc1cn2nc([C@@H]3CCCCN3C(=O)c3cc(Cl)ccc3NS(C)(=O)=O)cc2nc1N1CC[C@H](N)C1 [presatovir] | failure to meet viral load endpoints
